Results: patent US10028992B2, “Methods of treating muscular dystrophy” (BOARD OF REGENTS OF THE NEVADA SYSTEM OF HIGHER EDUCATION …, priority 2012, dated 2018)

Tested on: α7 integrin promoter
Assay: muscle cell-based assay: α7βgal+/− myoblasts/myotubes, LacZ reporter, β-galactosidase cleavage of FDG
Parameters: species or system mouse; Results in α7+/− β-galactosidase assay: scale not given here
Conditions: Myoblasts
Summary of the method: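 Fluorescein generated from FDG by β-galactosidase reports α7 integrin promoter activity in differentiated myoblasts from α7+/− LacZ knock-in pups. Screening hits then went to dose-response, western blotting and a myostatin counterscreen.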

Compound | Results in α7+/− β-galactosidase assay (0.5 uM) | Results in α7+/− β-galactosidase assay (1 uM) | Results in α7+/− β-galactosidase assay (5 uM) | Results in α7+/− β-galactosidase assay (10 uM) | Results in α7+/− β-galactosidase assay (20 uM) | Results in α7+/− β-galactosidase assay (40 uM)
CCN(C(=O)c1ccc(S(=O)(=O)N(C)C)cc1)C(C)C(=O)Nc1ccc(C)cc1 (stereo not drawn) [drawing 556] | −0.05004 | −0.1349 | −0.02565 | 0.2444 | −0.07832 | −0.2867
COc1cc(NC(=O)OCc2ccccc2)c2ncccc2c1 [drawing 557] | 0.0156 | −0.08284 | 0.01997 | 0.2347 | −0.06526 | −0.1686
Cc1ccc2c(c1)/C(=C/c1ccccc1C)C(=O)N2 [drawing 558] | 0.05088 | −0.09662 | −0.07445 | 0.08015 | −0.3519 | −0.675
O=C(NCCc1ccccc1)C1CCC(=O)N1C1CCCC1 (stereo not drawn) [drawing 559] | −0.1018 | −0.1461 | 0.003015 | 0.245 | 0.1433 | 0.02863
CCCN(C(=O)c1ccc(S(=O)(=O)N2CCCC2)cc1)C1CCS(=O)(=O)C1 (stereo not drawn) [drawing 560] | −0.1431 | −0.1722 | −0.06143 | 0.1978 | 0.07259 | −0.0646
C=CCOc1ccc(C(=O)/C=C2\C(=O)Nc3ccccc32)cc1 [drawing 561] | −0.1092 | −0.1536 | −0.257 | −0.2991 | −0.2121 | −0.7606
CCN(CC(=O)NCc1cccs1)C(=O)COc1ccc(C(N)=O)cc1 [drawing 562] | −0.04485 | −0.05578 | −0.03005 | 0.2509 | −0.05432 | −0.02246
CC(C)Oc1cccc(C(=O)Nc2ccc(CN3CCOCC3)cc2)c1 [drawing 563] | −0.0458 | −0.04183 | 0.01603 | 0.2092 | 0.7886 | −0.0962
Cc1ccc(/C=C2\C(=O)Nc3ccccc32)o1 [drawing 564] | 0.06962 | 0.01537 | −0.08809 | −0.1824 | −0.2196 | −0.6995
O=c1[nH]c(CN2CCCCC2)cc2c1C1(CCCCC1)Cc1ccccc1-2 [drawing 565] | 0.03731 | −0.01272 | −0.01947 | −0.1479 | 0.1068 | −0.1465
COc1ccccc1NS(=O)(=O)c1cc(NC(=O)c2ccc(Cl)nc2)ccc1N1CCCC1 [drawing 566] | 0.1257 | 0.1127 | 0.06786 | 0.0849 | −0.1817 | −0.2311
N#C/C(=C1/C(=O)Nc2ccc(Br)cc21)c1ccccn1 [drawing 567] | 0.2021 | 0.000395 | −0.2923 | −0.4689 | −0.5478 | −0.6637
N#CC1=C2SCN(c3ccccc3)CN2C(=O)CC1c1cccs1 (stereo not drawn) [drawing 568] | −0.02125 | −0.07703 | −0.07651 | −0.05714 | 0.1121 | −0.08344
COc1ccc(C(=O)/C=C2\C(=O)Nc3ccccc32)cc1 [drawing 569] | 0.002308 | −0.1094 | −0.5146 | −0.6859 | −0.703 | −0.8556
O=C(O)c1csc(-c2cccs2)n1 [drawing 570] | 0.0287 | −0.01442 | 0.8119 | −0.08869 | 0.1022 | −0.04959
COc1cccc(C(=O)COc2ccc3ccc(=O)oc3c2)c1 [drawing 571] | 0.09281 | 0.06053 | −0.01266 | 0.02813 | 0.004164 | −0.04457
CCCS(=O)(=O)c1nc(S(=O)(=O)c2ccc(C)cc2)c(N2CCCC2)s1 [drawing 572] | 0.06463 | 0.01847 | −0.2102 | −0.5196 | −0.8221 | −0.878
OC(c1nc2cc(F)ccc2[nH]1)C(O)c1nc2cc(F)ccc2[nH]1 (stereo not drawn) [drawing 573] | 0.08093 | 0.2145 | −0.08597 | −0.1055 | 0.001076 | −0.1048
COc1ccc(OC)c(NC(=O)CN2CCC(NC(=O)c3ccccc3C)CC2)c1 [drawing 574] | 0.0132 | 0.06975 | 0.04855 | −0.0931 | 0.06823 | 0.04785
O=C(CCc1ccccc1)c1nnc(-c2ccccc2)o1 [drawing 575] | 0.0917 | 0.1045 | 0.03485 | −0.04687 | −0.02713 | −0.06265
COc1ccc(/N=N/c2ccc(N)nc2N)cc1 [drawing 576] | 0.2183 | 0.2858 | 0.06976 | 0.01151 | 0.0406 | −0.04372
N=C(NOC(=O)c1cccc(C(F)(F)F)c1)c1cnccn1 [drawing 577] | −0.05513 | 0.02871 | −0.00636 | −0.02595 | 0.07472 | 0.1346
CCOc1ccc2nc(Cl)sc2c1 [drawing 578] | −0.06751 | 0.05388 | 0.04367 | −0.03134 | 0.1725 | 0.1336
